We go through 32 compounds from BindingDB's records for doi:10.1016/j.bmcl.2014.08.029 (Rhône-Poulenc Rorer, 2014).

SMILES strings stand for the structures.

A short description of this test: Antagonist activity at CRTh2 receptor in human whole blood assessed as inhibition of PGD2-induced eosinophil shape change preincubated for 10 mins with PGD2 addition measured after 4 mins by forward scatter and side scatter analysis.
For orientation: IC50 means the point on the concentration scale where inhibition reaches its midpoint. With `CCN(Cc1cc(C(F)(F)F)ccc1-c1cn(CC(=O)O)c2ccc(C)nc12)C(=O)C1CC1`, the IC50 worked out at 10 nM. With `CCN(Cc1cc(C(F)(F)F)ccc1-c1cn(CC(=O)O)c2ccc(C(F)(F)F)nc12)C(=O)C1CC1`, the IC50 worked out at 82 nM.

As for `CCN(Cc1cc(C(F)(F)F)ccc1-c1nn(CC(=O)O)c2cccc(F)c12)C(=O)C1CC1`, the IC50 was 23 nM. The same measure for `CCN(Cc1cc(C(F)(F)F)ccc1-c1nn(CC(=O)O)c2cccc(C#N)c12)C(=O)C1CC1`: 103 nM. With `CCN(Cc1cc(C(F)(F)F)ccc1-n1cc(CC(=O)O)c2ccc(C(F)F)nc21)C(=O)C1CC1` the figure was 8 nM; with `CCN(Cc1cc(C(F)(F)F)ccc1-n1cc(CC(=O)O)c2ccc(C)nc21)C(=O)COC`, 5 nM; with `CCN(Cc1ccccc1-n1cc(CC(=O)O)c2ccc(C)nc21)C(=O)C1CC1`, 9.5 nM. For `CCN(Cc1cc(C(F)(F)F)ccc1-n1cc(CC(=O)O)c2ccc(C)nc21)C(=O)CC1CC1`, the IC50 was 29 nM. Turning to `Cc1ccc2c(CC(=O)O)cn(-c3ccc(C(F)(F)F)cc3CN(CCOc3ccccc3)C(=O)C3CC3)c2n1`, the IC50 was 60 nM. For `CCN(Cc1cc(C(F)(F)F)ccc1-c1nn(CC(=O)O)c2ccc(Cl)c(F)c12)C(=O)C1CC1`, the IC50 was 18 nM. In the case of `CCN(Cc1cc(F)ccc1-n1cc(CC(=O)O)c2ccc(C)nc21)C(=O)C1CC1`, the IC50 is 6.4 nM. With `CCN(Cc1cc(C(F)(F)F)ccc1-c1nn(CC(=O)O)c2cccc(Cl)c12)C(=O)C1CC1` the figure was 160 nM. `CCN(Cc1cc(C(F)(F)F)ccc1-c1nn(CC(=O)O)c2ccc(C)cc12)C(=O)C1CC1`: the IC50 is 13 nM. The same measure for `CCN(Cc1cc(C(F)(F)F)ccc1-n1cc(CC(=O)O)c2ccc(C)nc21)C(=O)C1CCC1`: 8.5 nM.

In the case of `CCN(Cc1cc(C(F)(F)F)ccc1-c1nn(CC(=O)O)c2ccc(F)cc12)C(=O)C1CC1`, the IC50 was determined as 34 nM. Take `CCN(Cc1cc(C(F)(F)F)ccc1-c1nn(CC(=O)O)c2cccc(OC)c12)C(=O)C1CC1`: the IC50 worked out at 27 nM. The same measure for `CCN(Cc1cc(C(F)(F)F)ccc1-c1nn(CC(=O)O)c2ccc(F)c(Cl)c12)C(=O)C1CC1`: 71 nM; for `CCN(Cc1cc(C(F)(F)F)ccc1-c1nn(CC(=O)O)c2cccc(C)c12)C(=O)C1CC1`: 108 nM; for `CCN(Cc1cc(C(F)(F)F)ccc1-n1cc(CC(=O)O)c2cccnc21)C(=O)C1CC1`: 34 nM.

`CCN(Cc1cc(C(F)(F)F)ccc1-c1cc(CC(=O)O)n2ccc(C)nc12)C(=O)C1CC1`: the IC50 amounted to 24 nM. In the case of `CCN(Cc1cc(C)ccc1-n1cc(CC(=O)O)c2ccc(C)nc21)C(=O)C1CC1`, the IC50 came out at 13 nM.

In the case of `CCN(Cc1cc(C(F)(F)F)ccc1-c1cc(CC(=O)O)c2ccc(C)nn12)C(=O)C1CC1`, the IC50 is 7.3 nM.

As to `CCN(Cc1cc(OC(F)(F)F)ccc1-n1cc(CC(=O)O)c2ccc(C)nc21)C(=O)C1CC1`, the IC50 was 6.7 nM. The same measure for `CCN(Cc1cc(C(F)(F)F)ccc1-n1cc(CC(=O)O)c2ccc(C)nc21)C(=O)NCc1ccccc1`: 4.7 nM. The same measure for `CCN(Cc1cc(C(F)(F)F)ccc1-n1cc(CC(=O)O)c2ccc(C)nc21)C(=O)C1CC1`: 7.8 nM; for `Cc1ccc2c(CC(=O)O)cn(-c3ccc(C(F)(F)F)cc3CN(CC3CC3)C(=O)C3CC3)c2n1`: 22 nM; for `CCN(Cc1ccccc1-n1cc(CC(=O)O)c2ccc(C(F)(F)F)cc21)C(=O)C1CC1`: 7.7 nM.

Turning to `CCN(Cc1cc(Cl)ccc1-n1cc(CC(=O)O)c2ccc(C)nc21)C(=O)C1CC1`, the IC50 stood at 18 nM. In the case of `CCN(Cc1cc(C(F)(F)F)ccc1-c1nn(CC(=O)O)c2ccc(Cl)cc12)C(=O)C1CC1`, the IC50 was 23 nM. For `CCN(Cc1cc(C(F)(F)F)ccc1-n1cc(CC(=O)O)c2ccc(C)nc21)C(=O)Cc1ccccc1`, the IC50 amounted to 25 nM. In the case of `CCN(Cc1cc(F)ccc1-c1cn(CC(=O)O)c2ccc(C(F)(F)F)cc12)C(=O)C1CC1`, the concentration for half-maximal inhibition (IC50) is 17 nM. As for `CCN(Cc1cc(F)ccc1-n1cc(CC(=O)O)c2cccnc21)C(=O)C1CC1`, the IC50 was 11 nM.
